Some test systems named below: UO-31; U-251; MDA-N; CCRF-CEM; MDA-MB-435; SW-620; MOLT-4; SR; SN12C; RXF 393; A498; SF-295; KM12; M19-MEL; NCI-H23; SF-539; SK-MEL-28; DU-145; SNB-19; EKVX.
What all share (assay): NCI tumour cell line growth inhibition, 48 h

We go through 6 compounds from ChEMBL document CHEMBL1201862, “PubChem BioAssay data set” (2004).

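Step 1: Grow cells in 96-well plates. Step 2: Expose to compound for 48 hours at 5 concentrations. Step 3: Interpolate endpoints linearly; if unreached, use highest concentration. Abbreviation: GI50, concentration required for 50% inhibition of growth.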 The source made the active and inactive calls. No stated cut-off is given here; in the data, active = GI50 up to about 1.1 µM and inactive = higher. Bounds are passed on as bounds.

As to `S=c1[nH]nc(Cc2ccccc2)c(=S)[nH]1`, the GI50 in the assay on UO-31 was 46.5 µM (inactive); in the assay with U-251, > 55.1 µM (inactive); in the assay on MDA-N, 98.6 µM (inactive); in the assay with CCRF-CEM it was > 100 µM (inactive); with MDA-MB-435 it was 63 µM (inactive); in the assay with SW-620 it was > 100 µM (inactive). The GI50 is > 59.7 µM (inactive) in the assay on MOLT-4; > 65 µM (inactive) with SR; 65.3 µM (inactive) in the assay on SN12C; 32.8 µM (inactive) in the assay on RXF 393; > 42.9 µM (inactive) in the assay on A498; > 59.3 µM (inactive) in the assay with SF-295. Further, the GI50 with KM12 was > 79.8 µM (inactive); in the assay with M19-MEL it was > 100 µM (inactive); in the assay with NCI-H23, > 64.4 µM (inactive); in the assay on SF-539, > 76.4 µM (inactive); with SK-MEL-28, > 68.2 µM (inactive); in the assay with DU-145, 61.9 µM (inactive). Further, the GI50 in the assay on SNB-19 is > 87.9 µM (inactive).

In the case of `CCNCCCCNCCCCNCCCCNCCCCNCC`, the GI50 in the assay on UO-31 was 53.6 µM (inactive); in the assay with U-251 it was > 100 µM (inactive); in the assay with MDA-N it was 12.3 µM (inactive); in the assay on CCRF-CEM, 63.5 µM (inactive); in the assay with MDA-MB-435, 8.97 µM (inactive); in the assay on SW-620, > 100 µM (inactive). The GI50 was > 79.6 µM (inactive) with MOLT-4; 56.4 µM (inactive) in the assay on SR; > 95.1 µM (inactive) in the assay on SN12C; 27.7 µM (inactive) in the assay on RXF 393; > 94.2 µM (inactive) in the assay with A498; 42 µM (inactive) in the assay on SF-295. Besides, the GI50 with KM12 was 76.6 µM (inactive); in the assay on M19-MEL, > 100 µM (inactive); in the assay with NCI-H23, 9.08 µM (inactive); with SF-539, 70.1 µM (inactive); in the assay with SK-MEL-28, 9.14 µM (inactive); in the assay on DU-145, > 100 µM (inactive). Moreover, the results for the GI50 with SNB-19 and in the assay with EKVX were 99.8 µM (inactive) and 53.5 µM (inactive), respectively.

For `N#CC1(Cc2ccc(N)cc2)c2ccccc2C=CN1C(=O)c1ccccc1` (stereo not given), the GI50 was 19.8 µM (inactive) with UO-31; 46.7 µM (inactive) in the assay on U-251; 29 µM (inactive) in the assay with CCRF-CEM; 68.2 µM (inactive) with SW-620; 28.9 µM (inactive) in the assay with MOLT-4; 24.8 µM (inactive) in the assay on SR. Moreover, the GI50 was 41.2 µM (inactive) in the assay on SN12C; 27.4 µM (inactive) in the assay with RXF 393; 40 µM (inactive) in the assay on A498; 33 µM (inactive) with SF-295; 47.5 µM (inactive) in the assay on KM12; 40.1 µM (inactive) in the assay on M19-MEL. Besides, the GI50 in the assay on NCI-H23 was 47.1 µM (inactive); in the assay on SF-539, 60.5 µM (inactive); with SK-MEL-28, 79.3 µM (inactive); in the assay with SNB-19, 41.8 µM (inactive); in the assay on EKVX it was 38.7 µM (inactive).

As to `CC(C)(C)C1CCC(O)(c2ccccc2)CC1` (stereo not given), the GI50 in the assay with UO-31 is > 100 µM (inactive); with U-251 it was 40.6 µM (inactive); in the assay with CCRF-CEM, 92.9 µM (inactive); in the assay on SW-620 it was > 100 µM (inactive); in the assay on MOLT-4, 59.8 µM (inactive); with SR, 33.4 µM (inactive). Further, the GI50 with SN12C is 69.5 µM (inactive); with RXF 393 it was 50.7 µM (inactive); in the assay on A498, > 100 µM (inactive); in the assay on SF-295, > 100 µM (inactive); in the assay with KM12, > 100 µM (inactive); with M19-MEL, > 100 µM (inactive). The GI50 in the assay with NCI-H23, in the assay on SF-539, in the assay with SK-MEL-28, in the assay on SNB-19 and in the assay with EKVX was > 100 µM (inactive) in each case.

For `N#Cc1cc([N+](=O)[O-])ccc1NC(=O)C(=O)C(C(=O)c1ccc2ccccc2c1)C1OCc2ccccc21` (stereo not given), the GI50 with UO-31 was 12.8 µM (inactive); with U-251, 4 µM (inactive); in the assay with CCRF-CEM it was 3.92 µM (inactive); with SW-620, 6.27 µM (inactive); in the assay with MOLT-4, 2.18 µM (inactive); with SR it was 2.88 µM (inactive). The GI50 with SN12C is 13.7 µM (inactive); in the assay with RXF 393 it was 3.73 µM (inactive); in the assay on A498, 5.56 µM (inactive); in the assay on SF-295, 3.15 µM (inactive); with KM12, 15.4 µM (inactive); with M19-MEL it was 11.8 µM (inactive). Moreover, the GI50 in the assay on NCI-H23 was 4.5 µM (inactive); in the assay on SF-539 it was 1.82 µM (inactive); with SK-MEL-28, 4.18 µM (inactive); in the assay on SNB-19, 6.9 µM (inactive); in the assay with EKVX it was 16.4 µM (inactive).

Take `CCN(CC)CC(O)CNc1ccc(NCC(O)CCl)c2c1C(=O)c1ccccc1C2=O` (stereo not given): the GI50 was 4.59 µM (inactive) in the assay with UO-31; 10.8 µM (inactive) with U-251; 5.19 µM (inactive) with MDA-N; 1.06 µM (active) with CCRF-CEM; 4.45 µM (inactive) in the assay with MDA-MB-435; 1.28 µM (inactive) in the assay with SW-620. The GI50 in the assay on MOLT-4 is 0.484 µM (active); in the assay with SR, 1.05 µM (active); in the assay with SN12C it was 4.95 µM (inactive); with RXF 393, 12.6 µM (inactive); in the assay on A498 it was 13.5 µM (inactive); in the assay on SF-295, 9.75 µM (inactive). The GI50 with KM12 is 4.15 µM (inactive); with M19-MEL it was 6.82 µM (inactive); in the assay on NCI-H23, 6.67 µM (inactive); in the assay with SF-539 it was 6.27 µM (inactive); in the assay on SK-MEL-28 it was 11.5 µM (inactive); in the assay on DU-145, 13.4 µM (inactive). Besides, the figures for the GI50 in the assay with SNB-19 and in the assay on EKVX were 12.2 µM (inactive) and 14.9 µM (inactive), respectively.
